{"source": "patent US5550165A", "about": "“Pharmaceutical compositions for the treatment of hereditary tyosinemia type I” (Zeneca Limited, priority 1991, dated 1996)", "key": {"[1]": {"tested_on": "tyrosinaemia (type I) patients", "assay": "Therapeutic evaluation in patients with tyrosinaemia (type I)", "format": "in vivo, human", "description": "Patients with an advanced form of the disease will be given the test composition (generally about 0.2-2.0 mg of active ingredient per kg body weight) orally. A blood sample will be taken daily during the first week and then less frequently at the discretion of the physician. Urine specimens will normally be collected daily. The indicators outlined below will be used to monitor the response to the test composition. The treatment will be maintained for up to 12 months if a clinically and biochemically satisfactory response is observed. If not, the dose of active ingredient administered will be increased stepwise to a maximum of about 2 mg/kg per day. Should any adverse indication occur, based on the biochemical monitoring or clinical assessment dosing will be stopped immediately.\nThe patients will be placed on a tyrosine-restricted diet with the aim of keeping plasma tyrosine concentrations below 500 μmol/L. A large increase in the tyrosine concentration in plasma is not expected to occur, but levels will be monitored throughout the dosing. Changes in the excretion of the biochemical markers mentioned below, such as succinylacetoacetate, succinylacetone and 5-aminolevulinic acid will be monitored, as will the effect on porphobilinogen synthase and α-fetoprotein concentration.\nTyrosine and Methionine--these amino acids will be determined in plasma by a standard technique using an amino-acid analyser.\nSuccinylacetoacetate and Succinylacetone--these compounds will be determined in urine by gas chromatography--mass spectrometry. Succinylacetone in plasma will be determined by measuring the inhibition of porphobilinogen synthase using a conventional assay.\n5-Aminolevulinic acid--this will be determined in urine by a conventional colorimetric assay.\nα-Fetoprotein--this will be determined in plasma by a conventional radioimmunoassay technique.\nPorphobilinogen synthase--this will be determined in erythrocytes using a conventional colorimetric assay.\nA patient was admitted to hospital after problems with slight nose bleedings and the parents noting swelling of the abdomen. Metabolic screening in hospital diagnosed tyrosinaemia (type I) based on the abnormal excretion of succinylacetone, succinylacetoacetate and 5-aminolevulinic acid in urine and a low activity of porphobilinogen synthase in erythrocytes. […] This was increased to 0.16 mg/kg b.w. after four days, and then to about 0.4 mg/kg by the end of the first 2 months, the dose being divided into two portions for morning and afternoon administration. The dose was then increased to about 0.6 mg/kg after a further 5 months."}, "[2]": {"assay": "90 day oral toxicity in rhesus monkeys", "format": "in vivo", "conditions": "over 90 days, daily oral dose of 10 mg/kg"}, "[3]": {"tested_on": "tyrosinaemia (type I) patients", "assay": "Therapeutic evaluation in patients with tyrosinaemia (type I)", "format": "in vivo, human", "remark": "listed apart in the source"}, "[4]": {"conditions": "Patient 1, capsule formulation, 0.08 increased to about 0.6 mg/kg b.w."}, "[5]": {"conditions": "Patient 3, capsule formulation 0.2 mg/kg b.w., after 5 months 0.6 mg/kg b.w."}, "[6]": {"conditions": "Patient 2, capsule formulation 0.2 mg/kg b.w."}, "[7]": {"conditions": "Patient 4, capsule formulation 0.2 mg/kg b.w., after 5 months 0.6 mg/kg b.w."}}, "data": [{"smiles": "O=C1CCCC(=O)C1C(=O)c1ccc(C(F)(F)F)cc1[N+](=O)[O-]", "note": "[the Compound, 2-(2-nitro-4-trifluoromethylbenzoyl)-1,3-cyclohexanedione]", "values": [{"measurement": "excretion of 5-aminolevulinic acid", "setting": "[1]; [4]", "value": "concomitant decrease"}, {"measurement": "porphobilinogen synthase activity in erythrocytes", "setting": "[1]; [4]", "value": "immediate increase"}, {"measurement": "overall clinical condition of the patient", "setting": "[1]; Patient 1, during the treatment period", "value": "improved markedly"}, {"measurement": "plasma succinylacetone levels", "setting": "[1]; Patient 1, immediate decrease, after about 30 days", "value": "to the limit of detection"}, {"measurement": "decrease of concentration of amino acids in urine", "setting": "[1]; Patient 1, very high before treatment, after treatment", "value": "5-10 times"}, {"measurement": "urinary levels of succinylacetone", "setting": "[1]; [5]", "value": "substantially lowered"}, {"measurement": "toxic or other adverse effects", "setting": "[2]", "value": "no significant toxic or other adverse effects"}, {"measurement": "serum α-fetoprotein concentration after dosing", "setting": "[3]; Patient 1, decreased from 7,200 μg/L during dosing", "value": 96, "unit": "µg/L"}, {"measurement": "excretion of succinylacetone and succinylacetoacetate after treatment", "setting": "[3]; Patient 1, urine, immediate decrease from 50 mmol/mol of creatinine", "value": "< 1 mmol/mol of creatinine"}, {"measurement": "methionine concentration in plasma", "setting": "[3]; Patient 1, very high initially, after start of treatment", "value": "dropped to normal levels very rapidly"}, {"measurement": "clinical position of the patient", "setting": "[3]; Patient 2, 0.2 mg/kg b.w.", "value": "improved"}, {"measurement": "serum levels of α-fetoprotein after treatment", "setting": "[3]; Patient 2, 0.2 mg/kg b.w., decreased from ca. 900 μg/L", "value": 40, "unit": "µg/L"}, {"measurement": "serum levels of succinylacetone", "setting": "[3]; [6]", "value": "decreased"}, {"measurement": "urinary levels of 5-aminolevulinic acid", "setting": "[3]; [6]", "value": "decreased"}, {"measurement": "urinary levels of succinylacetone", "setting": "[3]; [6]", "value": "decreased"}, {"measurement": "porphobilinogen synthase activity", "setting": "[3]; Patient 2, capsule formulation 0.2 mg/kg b.w., initial 3 month dosing period", "value": "increased to normal levels"}, {"measurement": "clinical position of the patient", "setting": "[3]; Patient 3, 0.2 then 0.6 mg/kg b.w.", "value": "improved"}, {"measurement": "serum levels of α-fetoprotein after treatment", "setting": "[3]; Patient 3, 0.2 then 0.6 mg/kg b.w., fell from ca. 900 μg/L", "value": 11, "unit": "µg/L"}, {"measurement": "plasma levels of succinylacetone", "setting": "[3]; [5]", "value": "substantially lowered"}, {"measurement": "urinary levels of 5-aminolevulinic acid", "setting": "[3]; [5]", "value": "substantially lowered"}, {"measurement": "clinical position of the patient", "setting": "[3]; Patient 4, 0.2 then 0.6 mg/kg b.w.", "value": "improved"}, {"measurement": "serum levels of α-fetoprotein after treatment", "setting": "[3]; Patient 4, 0.2 then 0.6 mg/kg b.w., fell from ca. 2000 μg/L", "value": 48, "unit": "µg/L"}, {"measurement": "plasma levels of succinylacetone", "setting": "[3]; [7]", "value": "substantially lowered"}, {"measurement": "urinary levels of 5-aminolevulinic acid", "setting": "[3]; [7]", "value": "substantially lowered"}, {"measurement": "urinary levels of succinylacetone", "setting": "[3]; [7]", "value": "substantially lowered"}]}]}
